{"source": "patent US20020169128A1", "about": "“Erythropoietin ameliorates chemotherapy-induced toxicity in vivo” (priority 2001, published 2002)", "key": {"C57B16 female mice": {"tested_on": "C57B16 female mice", "assay": "Pulmonary function (Penh) by whole body plethysmography after graded methacholine challenge in mice treated with EPO and/or bleomycin", "type": "in vivo", "settings": "treated twice a week for two weeks, i.p., FIG. 1", "experimental": "C57B16 female mice between 7 and 12 weeks old weighing approximately 20 grams were treated with varying doses of EPO alone and in combination with bleomycin. Animals were treated twice a week with placebo, EPO alone (5-40 μg/mouse, i.p.), bleomycin alone (0.25-0.75 μg/mouse, i.p.), or EPO and bleomycin in combination. […] At these time points, pulmonary function was measured using a full body plethysmograph (Buxco, Niskayuna, N.Y.). This is a noninvasive method utilizing a clear plastic animal chamber fitted with two pneumotachs and a transducer which interface with a computer. Pulmonary resistance and dynamic compliance is evaluated by an analyzer which measures flow and pressure readings at equivalent lung volumes during inspiration and expiration (“Iso-Volumetric Method”). Artifacts from animal movement or atypical breaths (e.g. from “sniffing”) are ignored by computer analysis using parameters that can be adjusted as appropriate for the tidal volume and inspiratory time of the individual animal. The method of whole body plethysmography has been studied and found to be a valid index of pulmonary function in the mouse (Hamelmann et al., Am. J. Respir. Crit. Care Med. 156)3 Pt1) 776-75 (1997). […] A similar pattern of the Penh values was observed when pulmonary functions were performed at four weeks of treatment (see FIG. 2)."}, "[1]": {"settings": "doses of up to 1,500 Units/kg for three to four weeks; cited from earlier work"}}, "data": [{"substance": "bleomycin [reference compound]", "values": [{"measurement": "worsening in Penh values compared with control animals", "setting": "C57B16 female mice; graded (0 to 48 mg/ml) methacholine challenge", "result": 2.6, "unit": "fold"}]}, {"substance": "erythropoietin [EPO]", "values": [{"measurement": "pulmonary function (Penh), EPO given in the absence of bleomycin", "setting": "C57B16 female mice; graded methacholine challenge", "result": "slight enhancement of pulmonary function"}, {"measurement": "toxic effects due to EPO itself", "setting": "[1]", "result": "without toxic effects"}]}]}
